Measured values as given in patent US20240262878A1, “PHOTOACTIVATABLE GASDERMIN PROTEINS” (THE BOARD OF TRUSTEES OF THE UNIVERSITY OF ILLINOIS, priority 2021, published 2024).
Changes are numbered by the printed parent chain. Names and notes keep the numbering of the source. “Also recorded” adds a separate entry of the source. Values belong to the molecule of their own block, whether it stands above or below them.

What was measured:
GSDMD pores = target: T1, GSDMD pores (Homo sapiens, UniProt P57764); assay: Free-standing planar lipid bilayer electrophysiology of reconstituted GSDMD pores; assay type: biochemical; conditions: for single pore activity / pore dynamics profile: lipid in POPE/POPC bilayer; for time to observe GSDMD protein-membrane interaction, in words: lipid in bilayer compared to baseline or PIP2 bilayer
T1 construct: His-SUMO (N, cleaved yes); made in house; host or cells: E. coli BL21
T1 sequence (P57764 1-275 limits assumed): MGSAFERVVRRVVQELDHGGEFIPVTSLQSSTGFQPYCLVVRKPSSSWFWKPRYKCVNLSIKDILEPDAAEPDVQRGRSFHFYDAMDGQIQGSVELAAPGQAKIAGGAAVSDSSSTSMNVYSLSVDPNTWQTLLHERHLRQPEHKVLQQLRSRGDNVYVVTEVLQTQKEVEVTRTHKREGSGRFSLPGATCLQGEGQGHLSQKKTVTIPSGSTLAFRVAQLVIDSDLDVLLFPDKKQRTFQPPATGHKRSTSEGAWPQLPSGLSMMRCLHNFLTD
Method: Protein Purification. Plasmid encoding the full length human GSDMD with a N-terminal His-SUMO tag was transformed into E. coli BL21 strain. The cultures were grown at 37° C. until OD600 0.8, and protein expression was induced with 0.2 mM isopropyl β-D-1-thiogalactopyranoside (IPTG) overnight at 20° C. The cells were harvested by centrifugation and the pellet was resuspended in 20 mM Tris buffer, pH 7.5, 50 mM NaCl, 5 mM imidazole, 20 mM MgCl2, 10 mM KCl, 0.5 mM TCEP, 0.1 mM protease inhibitor, and DNase I. After resuspension, cells were disrupted by high-pressure and centrifuged at 30,000 g at 4° C. for 1 hour. The supernatant was incubated for 2 hours at room temperature with pre-equilibrated Ni-NTA affinity resin (Thermo Scientific) and then passed through a column for gravity flow purification. The column was washed with 20 column volumes of resuspension buffer, and the fusion protein was eluted with three column volumes of the same buffer with 250 mM imidazole. SUMO-tag cleavage was achieved by addition of ULP1 protease to the solution and subsequent dialysis overnight at 4° C. against 20 mM Tris buffer, pH 7.5, 50 mM NaCl, 0.5 mM TCEP. GSDMD was eluted from a second round of purification through pre-equilibrated Ni-NTA affinity resin. The protein was further purified by HI-TRAP® Q ion-exchange resin and a SUPERDEX® 75 gel filtration column (GE Healthcare) pre-equilibrated with 20 mM Tris buffer, pH 7.5, 50 mM NaCl, 0.5 mM TCEP. The purified protein was concentrated to 20 mg/ml and frozen at −80° C.
Free-Standing Lipid Bilayer Formation and Electrophysiology. For the lipid bilayer, a bilayer chamber with a polystyrene cuvette was used. In addition, the folding method, which is based on Langmuir-Blodgett film formation (Kroemer et al. (2009) Cell Death Differ. 16:3-11; Weavers et al. (2016) Cell 165:1658-1671) was employed. Monolayers that were spread in the air-water interface were faced at the chamber hole (Bergsbaken & Fink (2009) Nat. Rev. Microbiol. 7:99-109; Mulvihill et al. (2018) EMBO J. 37 (14): e98321). In brief, a shallow trough made of polystyrene was filled with recording solution, and the surface was separated into two parts by one of the cuvette walls. Bilayers were formed by monolayers of 1:3 1-palmitoyl-2-oleoylphosphatidylethanolamine (POPE)/1-palmitoyl-2-oleoylphosphatidylcholine (POPC) (Avanti-lipids) in pentane; where appropriate, phosphoinositides of the indicated headgroup were introduced with di-oleoyl (18:1) fatty acid chains at 10% relative concentration. A small amount of phospholipid, dispersed in pentane solution, was dropped on one of the water surfaces and as pentane evaporated, the lipid molecules remained at the air-water interface. The movements of the lipid molecules became less vigorous, and eventually the lipid molecules packed together to form a monolayer. For the formation of the planar lipid bilayer by the folding method, a monolayer was formed at the air-water interface in each compartment. Upon raising the recording solution level by adding more solution, the monolayer ran up on the cuvette surface and passed through the hole, where the two monolayers from both sides encountered each other and formed a bilayer. The membrane formed by this method has been referred to as a “solvent-free” membrane. The advantage of this method over other methods, like the painting method, is the capacity to form an asymmetrical membrane in which the lipid composition of either leaflet is arbitrarily defined (Kayagaki et al. (2015) Nature 526: 666-671). Once formed, the membrane retains this asymmetry for a long time because the flip-flop or exchange of the lipid molecules between both leaflets of the membrane is very slow.
For incorporation of the GSDMD into the lipid bilayer, 2 μM of the purified GSDMD protein was added to the cis side chamber along with 2 μM of caspase 1. The specific membrane capacitance of the membrane formed by the folding method was 0.6-0.8 μF/cm^2. […]

Hela cells = assay: Optogenetic activation of PhoDer, membrane-targeted jRCaMP1b calcium flare imaging and fluctuation analysis; assay type: cell-based; conditions: PhoDer mutants in live Hela cells vs PhoDer
Method: Cloning. Cloning and subcloning were performed using the DH5a strain of E. coli. All mammalian constructs were cloned into the pcDNA3.0 vector with a modified multiple cloning site. Plasmids were generated as follows. Gasdermin D gene was obtained from Addgene. A diffusible optogenetic GSDMD, referred to herein as “PhoDer” and set forth in SEQ ID NO: 33, was constructed according to the reported domains structure by ligating three fragments into the pcDNA3.0 vector in one reaction via Gibson Assembly (New England BioLabs). For each fragment, PCR was specifically designed to create appropriate complementation. The jRCaMP1b gene, encoding a sensitive red protein calcium indicator, was obtained from Addgene. Membrane targeted calcium indicator jRCaMP1b was constructed by ligating a PCR fragment of the calcium indicator into the restriction enzyme sites BamHI and EcoRI in a modified pcDNA3.0 vector carrying a 5′ fragment encoding the N-terminal Lyn kinase localization sequence.
Cell Culture. HeLa and RAW264.7 cells were maintained in Dulbecco's Modified Eagle Medium (DMEM) medium supplemented with 10% fetal bovine serum (FBS) and 1% penicillin and streptomycin. Cells were transfected at 50%-70% confluency using LIPOFECTAMINE® 2000 transfection reagent and incubated for 24 hours before imaging. Cells were never serum-starved. To examine endogenous inflammatory activation, RAW264.7 cells were treated with 100 ng/μL lipopolysaccharide (LPS, Invivogen) at the beginning of each experiment. Pretreatment to bias membrane composition by phosphatidylinositol 4,5-bisphosphate (PIP2) modifying enzymes was performed by incubating Hela cells in Hanks' Balanced Salt Solution (HBSS) buffer with inhibitors at 37° C. for 10 minutes to prior imaging at the following concentrations: for phosphoinositide 3-kinase (PI3K), cells were treated 10 μM wortmannin (Tocris); and for phospholipase C (PLC), cells were treated with 10 μM U73122 (Tocris). Cells were removed from the incubator and allowed to come to thermal equilibrium before being imaged in HBSS buffer at room temperature.
Fluorescence Imaging, Optogenetic Activation, and Post-Processing. All epifluorescence imaging was performed on a customized Nikon Ti2-E microscope equipped with individual control over excitation (EX) and emission (EM) filters, a fast LED light source (Lumencor) with fluid-cooled EMCCD (Andor), motorized stage, and examined under a 40× or 100× oil immersion objective under live focus tracking. For RFP, excitation (EX) and emission (EM) filter combinations (maxima/bandwidth in nm) are indicated. Cells were imaged at 12-15 second intervals. Emission intensities of individual cells were background-subtracted before normalization to zero time point, when optogenetic activation began. In the optical setup, optogenetic activation of PhoDer was performed using an EX filter at 440/20 nm for 20-30 ms across whole fields of view. This replicated the progression of endogenous activation of GSDMD observed in LPS-stimulated RAW264.7 cells. […] Where applicable, inhibitors were treated at the indicated concentration for 15 minutes prior to imaging.
Fluctuation Analysis and Quantification. To automate the objective isolation and quantitation of calcium flares, a post-processing algorithm was developed based on principles and normalization scheme detailed in work on photochromic stochastic optical fluctuation imaging (pcSOFI) (Dedecker et al. (2012) Proc. Natl. Acad. Sci. USA 109: 10909-10914). Briefly, fluctuation caused by the flares generate high autocorrelation signals in time-averaged series and yield high contrast at locales of the greatest ion flux. To truly reflect the local flux change, it is then normalized to remove dependence on the number of biosensors reporting at the given location using a scheme detailed previously (Mo et al. (2017) Nat. Methods 14 (4): 427-434). […]

[1] = lipid at 10% in POPE/POPC bilayer
[2] = lipid at 10% in POPE/POPC bilayer vs baseline

- single pore activity / pore dynamics profile (GSDMD pores): no single pore activity was detected
Molecule: diacylglycerol [DAG]

- mean current of pores (GSDMD pores; [1]): 20 pA
- time to observe protein-membrane interaction (GSDMD pores; [1]): 2.4 ± 0.5 min
- effect on open probability of pores (GSDMD pores; [2]): did not affect the open probability
- increase in open/close events (GSDMD pores; [2]): 57 fold
- time to observe GSDMD protein-membrane interaction, in words (GSDMD pores): significantly shortened
Molecule: phosphatidylinositol 4,5-bisphosphate [PIP2]
- dwell time (open duration) of pores (GSDMD pores; [2]): similarly distributed; also recorded: similar

Molecule: cardiolipin [cardiolipin (CL)]
- single pore activity / pore dynamics profile (GSDMD pores): supported a pore dynamics profile similar to that of PIP2

- mean current of pores (GSDMD pores; [1]): 20.5 pA
- time to observe GSDMD protein-membrane interaction, in words (GSDMD pores): remained as rapid as with PIP2
- time to observe GSDMD protein-membrane interaction, in words (GSDMD pores; listed as PI(3,4,5)P3 (PIP3)): significantly shortened
Molecule: phosphatidylinositol triphosphate [PIP3]
- dwell time (open duration) of pores (GSDMD pores; [2]): significantly shorter-lived; also recorded: apparently short dwell time
- single pore activity / pore dynamics profile (GSDMD pores): kept GSDMD pores predominantly in the open state

B1: m1: PhoDer mutant K51Q/R53Q/K55Q (SEQ ID NO:34) (protein)
chain: MGSAFERVVRRVVQELDHGGEFIPVTSLQSSTGFQPYCLVVRKPSSSWFWQPQYQCVNLSIKDILEPDAAEPDVQRGRSFHFYDAMDGQIQGSVELAAPGQAKIAGGAAVSDSSSTSMNVYSLSVDPNTWQTLLHERHLRQPEHKVLQQLRSRGDNVYVVTEVLQTQKEVEVTRTHKREGSGRFSLPGATCLQGEGQGHLSQKKTVTIPSGSTLAFRVAQLVIDSDLDVLLFPDKKQRTFQPPATGHKRSTSEGAWPQLPSGLSMMRCLHNGGGSVIPDYFKQSFPEGYSWERSMTYEDGGICIATNDITMEGDSFINKIHFKGTNFPPNGPVMQKRTVGWEASTEKMYERDGVLKGDVKMKLLLKGGGHYRCDYRTTYKVKQKPVKLPDYHFVDHRIEILSHDKDYNKVKLYEHAVARNSTDSMDELYKGGSGGMVSKGEETITSVIKPDMKNKLRMEGNVNGHAFVIEGEGSGKPFEGIQTIDLEVKEGAPLPFAYDILTTAFHYGNRVFTKYPRGGGVPAEGAFTEDFQGLRAEVETISKELELLDRELCQLLLEGLEGVLRDQLALRALEEALEQGQSLGPVEPLDGPAGAVLECLVLSSGMLVPELAIPVVYLLGALTMLSETQHKLLAEALESQTLLGPLELVGSLLEQSAPWQERSTMSLPPGLLGNSWGEGAPAWVLLDECGLELGEDTPHVCWEPQAQGRMCALYASLALLSGLSQEPH
- pore opening/closing dynamics (automated flare quantification) (Hela cells): significantly reduced pore opening/closing dynamics; also recorded: significant changes in pore activity

B2: m6: PhoDer mutant R42E/K43E/K51E/R53E/K55E (SEQ ID NO: 39) (protein)
chain: B1 chain with R42E, K43E, Q51E, Q53E, Q55E
- pore opening/closing dynamics (automated flare quantification) (Hela cells): significantly reduced pore opening/closing dynamics

B3: m3: PhoDer mutant R42Q/K43Q (SEQ ID NO:36) (protein)
chain: B1 chain with R42Q, K43Q, Q51K, Q53R, Q55K
- pore opening/closing dynamics (automated flare quantification) (Hela cells): significantly reduced pore opening/closing dynamics; also recorded: significant changes in pore activity

B4: m4: PhoDer mutant R42E/K43E (SEQ ID NO:37) (protein)
chain: B1 chain with R42E, K43E, Q51K, Q53R, Q55K
- pore opening/closing dynamics (automated flare quantification) (Hela cells): significantly reduced pore opening/closing dynamics

B5: m5: PhoDer mutant R42Q/K43Q/K51Q/R53Q/K55Q (SEQ ID NO:38) (protein)
chain: B1 chain with R42Q, K43Q
- pore opening/closing dynamics (automated flare quantification) (Hela cells): significantly reduced pore opening/closing dynamics; also recorded: significant changes in pore activity

B6: m2: PhoDer mutant K51E/R53E/K55E (SEQ ID NO:35) (protein)
chain: B1 chain with Q51E, Q53E, Q55E
- pore opening/closing dynamics (automated flare quantification) (Hela cells): significantly reduced pore opening/closing dynamics; also recorded: significant changes in pore activity
